From US20120269815A1, “NEUROTROPHINS AND USES THEREOF” (Regents of the University of Minnesota, priority 2008, published 2012)
Entries after “also recorded” stand apart in the source; their conditions may differ. No end group written: not given here.

Key:
GT1-1 cells = conditions: 24 hr serum deprivation, 3.6 μM peptide
Method: GT1-1 cell survival assays: GT1-1 cells are immortalized cell line derived from mouse embryonic hypothalamus (a gift from Dr. Richard Weiner, UCSF).
a) Suppression of TUF1 expression by RNAi GT1-1 cells were seeded at 100,000 cells/well in a 12-well plate (as described in Example 1) and incubated for 72 hours at 37° C. supplemented with 5% CO2. Fresh growth media were added for at least 1 hour before cells were transfected with negative control RNAi or TUF1-specific RNAi (150 picomoles diluted in OptiMEM, Stealth RNAi, Invitrogen Corp., Carlsbad, Calif.) using Fugene6 (1.5 μl/200 μl medium, Roche Diagnostics Corp., Indianapolis, Ind.) and incubated overnight. […] Cells were then lifted from the well by adding Trypsin-EDTA (Invitrogen Corp., Carlsbad, Calif.) and surviving cells were counted by Trypan Blue exclusion using a hemocytometer and an inverted microscope. […]
b) Repression of TUF1 activity by anti-TUF1 peptide antibody (IgG) GT1-1 cells were seeded at 100,000 cells/well and incubated for 72 hours as described above. […] Surviving cells were lifted from wells and counted as described in part (a). […]
Cells were treated with serum-free media supplemented with 0.0 μg/ml, 2.5 μg/ml (1.8 μM), or 5.0 μg/m (3.6 μM) TUF1 peptide. Surviving cells were counted at 24 hours, 48 hours, and 72 hours of incubation as described in part (a). […]

COS7 cells = assay: COS7 cell survival following serum deprivation (Trypan blue uptake); assay type: cell-based; conditions: 5 nM peptide
Method: To gain insight into the binding of TUF1[43-54] peptide and p75^NTR, serum deprivation was used as a stressor to COS7 cells transfected with pCMV-SPORT6-p75 expression vector. COS7 cells were seeded at 15,000 cells/well in 12-well plates, transfected with 300 ng pCMV-eGFP (control) or 300 ng pCMV-SPORT6-p75, and incubated overnight. Cells were then incubated in serum-free medium or serum-free medium supplemented with 5 nM TUF1[43-54]. Cells were assessed for Trypan blue dye uptake at 24, 48, and 72 hours.
Immediately after removing growth medium, cells were rinsed with PBS and incubated in 100 μl 0.4% Trypan blue dye diluted in PBS. Images of cells were captured at 10× magnification using an inverted microscope equipped with a CCD camera. Trypan blue-positive cells were counted using Adobe Photoshop CS3 (Adobe Systems Inc., San Jose, Calif.). Graphs and statistics were performed using Prism Graphpad 4.0 (GraphPad Software Inc., San Diego, Calif.).

[1] = test system: unknown receptor expressed in COS7 cell; assay: Fluorescence-labeled TUF1 peptide binding to control (pCMV-GFP) COS7 cells; conditions: labeled peptide 5 nM, COS7 cells transfected with pCMV-GFP
Method: COS7 cells were seeded at 10,000 cells/well onto a 18 mm coverslip in a 12-well plate. Cells were allowed to settle overnight in a cell culture incubator (NuAire NU-8600, NuAire, Inc., Plymouth, Minn.) set at 37° C. and 5% CO2. Cells were transfected with pCMV-eGFP (Clontech Laboratories, Inc., Mountain View, Calif.) or pCMV-SPORT6-p75 (ATCC) using Fugene HD (Roche Diagnostics Corp., Indianapolis, Ind.) and were incubated overnight. The binding assays were carried out according to Horton et al. with modifications. Synthetic TUF1 peptides (TUF1[43-54] (SEQ ID NO:1) and TUF1[24-40] (SEQ ID NO:3) were generated (via Sigma Genosys, Sigma-Aldrich Co. St. Louis, Mo.) and were conjugated per manufacturer's recommendation with DyLight 549 NHS Ester (Thermo Fisher Scientific, Waltham, Mass.), which have similar spectra to Cy3 dye. Unconjugated dye was removed with a dye removal column (Thermo Fisher Scientific, Waltham, Mass.). Labeled peptides were diluted to 5 nM in 0.15 M Sucrose/PBS and added (1.0 ml/well) to transfected COS7 cells. The binding reaction was incubated in the dark at room temperature for 90 minutes. Cells were rinsed thoroughly with PBS+0.05% Tween-20 to remove unbound peptide. Cells were then fixed with 4% Paraformaldehyde (5 minutes). […]

[2] = Food consumption after ICV TUF1 peptide infusion; assay type: in vivo; conditions: rat, ICV administration
Method: a) Intra-cerebroventricular (ICV) Cannulation Male Sprague-Dawley rats weighing 250-400 grams were anesthetized with ketamine (100 mg/kg) and xylazine (7 mg/kg) and placed in a stereotaxic device (David Kopf Instruments Corp., Tunjunga, Calif.) using atraumatic ear bars. An incision of the skin overlying the skull was made and anchor screws were inserted into the skull. Burr holes were drilled to allow the guide cannula to pass into the brain. The guide cannula (22-gauge, C313G; Plastics One, Roanoke, Va.) was placed at 0 mm posterior, 1.2 mm lateral and 3.5 mm ventral to bregma. The cannula was affixed using epoxy glue (Loctite 444; McMaster-Carr, Chicago, Ill.) followed by dental acrylic (Hygienic perm reline & repair resin, Type II, Class I; Henry Schein, Inc., Melville, N.Y.). The cannula was sealed and kept open by insertion of a ‘dummy’ cannula.
b) TUF1 Peptide Infusion 0 μg, 1 μg, or 10 μg TUF1 peptide diluted in artificial cerebrospinal fluid (aCSF, Harvard Apparatus, Holliston, Mass.) was injected into the brain through the in-dwelling cannulae immediately prior to behavioral measurement (described below). […]
Food intake, in grams, was measured by weighing food in the hopper daily for the two days prior to drug infusion and for the drug infusion days, and calculating the amount eaten by subtracting each day's food weight from that of the previous day.

## AYKSYVRALPLL [TUF1[43-54]]
GT1-1 cells
  effect on cell survival: no effect
COS7 cells; COS7 cells transfected with pCMV-SPORT6-p75, serum deprivation
  survival benefit of peptide in presence of p75^NTR: removed the survival benefit
COS7 cells; Trypan blue-positive cells at 24, 48, 72 hours, control-transfected COS7 cells
  cell survival / cell death following serum deprivation: promotes cell survival; also recorded: reduces in vitro cell death following serum deprivation
[1]
  binding to unknown receptor expressed in COS7 cell: binds to an unknown receptor expressed in COS7 cell at a low level
[2]
  food consumption: influences food consumption
